In US11739074B2, “Ras inhibitors” (Revolution Medicines, Inc., priority 2019, dated 2023):
Where two headings read alike, the source gives them in different places.

Tests used:
NCI-H358 (K-Ras G12C) = experiment: CellTiter-Glo cell viability assay, H358; type: cell-based; details: Homo sapiens, NCI-H358, 120 h
How it was run: (§1)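 Luminescence from CellTiter-Glo serves as the viability read-out after cells are treated with compound for 5 days. Each well's signal is divided by the DMSO average and multiplied by 100, and curves are fitted by four-parameter logistic regression.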

NRAS G12C = target: T1, NRAS G12C (Homo sapiens, UniProt P01111+P62937, G12C); experiment: Ras-Raf disruption/FRET/MOA assay, NRAS G12C; type: biochemical
T1 construct: His6
T1 sequence (P01111 whole entry G12C): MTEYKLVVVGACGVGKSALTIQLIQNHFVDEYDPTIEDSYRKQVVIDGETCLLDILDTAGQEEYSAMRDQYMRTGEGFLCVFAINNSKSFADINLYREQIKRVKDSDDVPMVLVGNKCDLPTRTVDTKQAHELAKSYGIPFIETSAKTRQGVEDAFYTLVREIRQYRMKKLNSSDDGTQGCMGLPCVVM
T1 sequence (P62937 whole entry): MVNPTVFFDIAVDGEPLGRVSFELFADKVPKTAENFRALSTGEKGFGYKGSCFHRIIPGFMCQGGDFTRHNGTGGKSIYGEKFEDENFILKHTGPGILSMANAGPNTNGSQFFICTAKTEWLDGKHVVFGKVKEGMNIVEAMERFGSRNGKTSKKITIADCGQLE
From the text: (§2) Disruption of B-Raf Ras-Binding Domain (BRAF^RBD) Interaction with K-Ras by Compounds of the Invention (Also Called a FRET Assay or an MOA Assay)
(§3) Note—The following protocol describes a procedure for monitoring disruption of K-Ras G12C (GMP-PNP) binding to BRAF^RBD by a compound of the invention. This protocol may also be executed substituting other Ras proteins or nucleotides, such as K-Ras G12D and K-Ras G13D.
(§4) The purpose of this biochemical assay was to measure the ability of test compounds to facilitate ternary complex formation between a nucleotide-loaded K-Ras isoform and Cyclophilin A; the resulting ternary complex disrupts binding to a BRAF^RBD construct, inhibiting K-Ras signaling through a RAF effector.
(§5) In assay buffer containing 25 mM HEPES pH 7.3, 0.002% Tween20, 0.1% BSA, 100 mM NaCl and 5 mM MgCl2, tagless Cyclophilin A, His6-K-Ras-GMPPNP, and GST-BRAF^RBD were combined in a 384-well assay plate at final concentrations of 25 μM, 12.5 nM, and 50 nM, respectively. Compound was present in plate wells as a 10-point 3-fold dilution series starting at a final concentration of 30 μM. After incubation at 25° C. for 3 hours, a mixture of anti-His Eu-W1024 and anti-GST allophycocyanin was then added to assay sample wells at final concentrations of 10 nM and 50 nM, respectively, and the reaction incubated for an additional 1.5 hours. […] Compounds that facilitate disruption of a K-Ras:RAF complex were identified as those eliciting a decrease in the TR-FRET ratio relative to DMSO control wells.

KRAS G12V = KRAS G12V (Homo sapiens, UniProt P01116+P62937, G12V); experiment: Ras-Raf disruption/FRET/MOA assay, KRAS G12V; type: biochemical
Sequence of KRAS G12V (P01116 1-169 isoform P01116-2 G12V limits assumed): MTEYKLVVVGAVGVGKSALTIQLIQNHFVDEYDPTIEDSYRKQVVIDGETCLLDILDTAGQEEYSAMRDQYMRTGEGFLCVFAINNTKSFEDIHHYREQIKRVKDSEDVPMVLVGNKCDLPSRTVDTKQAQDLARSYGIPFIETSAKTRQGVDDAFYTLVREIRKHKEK
Sequence of KRAS G12V (P62937 whole entry): as the sequence (P62937 whole entry) above
From the text: as §2, §3, §4, §5

KRAS G12C = KRAS G12C (Homo sapiens, UniProt P01116+P62937, G12C); experiment: Ras-Raf disruption/FRET/MOA assay, KRAS G12C; type: biochemical
Sequence of KRAS G12C (P01116 1-169 isoform P01116-2 G12C limits assumed): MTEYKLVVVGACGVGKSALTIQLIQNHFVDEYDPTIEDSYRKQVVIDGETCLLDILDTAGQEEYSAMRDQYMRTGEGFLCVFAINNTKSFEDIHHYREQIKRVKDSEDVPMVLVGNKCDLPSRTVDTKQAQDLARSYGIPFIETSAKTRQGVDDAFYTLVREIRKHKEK
Sequence of KRAS G12C (P62937 whole entry): as the sequence (P62937 whole entry) above
From the text: as §2, §3, §4, §5

AsPC-1 (K-Ras G12D) [1] = experiment: CellTiter-Glo cell viability assay, AsPC-1; type: cell-based; details: Homo sapiens, ASPC1, 120 h
How it was run: as §1

KRAS G13C = KRAS G13C (Homo sapiens, UniProt P01116+P62937, G13C); experiment: Ras-Raf disruption/FRET/MOA assay, KRAS G13C; type: biochemical
Sequence of KRAS G13C (P01116 1-169 isoform P01116-2 G13C limits assumed): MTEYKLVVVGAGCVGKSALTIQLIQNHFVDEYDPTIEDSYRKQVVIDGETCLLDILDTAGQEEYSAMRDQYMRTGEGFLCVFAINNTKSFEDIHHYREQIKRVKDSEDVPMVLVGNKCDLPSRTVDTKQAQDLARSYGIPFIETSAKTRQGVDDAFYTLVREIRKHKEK
Sequence of KRAS G13C (P62937 whole entry): as the sequence (P62937 whole entry) above
From the text: as §2, §3, §4, §5

KRAS G12S = KRAS G12S (Homo sapiens, UniProt P01116+P62937, G12S); experiment: Ras-Raf disruption/FRET/MOA assay, KRAS G12S; type: biochemical
Sequence of KRAS G12S (P01116 1-169 isoform P01116-2 G12S limits assumed): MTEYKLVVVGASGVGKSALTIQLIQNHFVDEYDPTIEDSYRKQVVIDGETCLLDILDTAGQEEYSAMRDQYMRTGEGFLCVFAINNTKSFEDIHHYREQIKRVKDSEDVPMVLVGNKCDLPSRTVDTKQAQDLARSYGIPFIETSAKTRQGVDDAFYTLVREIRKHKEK
Sequence of KRAS G12S (P62937 whole entry): as the sequence (P62937 whole entry) above
From the text: as §2, §3, §4, §5

KRAS G12D = KRAS G12D (Homo sapiens, UniProt P01116+P62937, G12D); experiment: Ras-Raf disruption/FRET/MOA assay, KRAS G12D; type: biochemical
Sequence of KRAS G12D (P01116 1-169 isoform P01116-2 G12D limits assumed): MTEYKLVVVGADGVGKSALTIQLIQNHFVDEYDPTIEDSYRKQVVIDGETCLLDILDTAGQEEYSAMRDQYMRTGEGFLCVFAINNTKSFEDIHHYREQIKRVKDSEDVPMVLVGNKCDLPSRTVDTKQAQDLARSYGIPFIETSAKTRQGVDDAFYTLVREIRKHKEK
Sequence of KRAS G12D (P62937 whole entry): as the sequence (P62937 whole entry) above
From the text: as §2, §3, §4, §5

KRAS G13D = KRAS G13D (Homo sapiens, UniProt P01116+P62937, G13D); experiment: Ras-Raf disruption/FRET/MOA assay, KRAS G13D; type: biochemical
Sequence of KRAS G13D (P01116 1-169 isoform P01116-2 G13D limits assumed): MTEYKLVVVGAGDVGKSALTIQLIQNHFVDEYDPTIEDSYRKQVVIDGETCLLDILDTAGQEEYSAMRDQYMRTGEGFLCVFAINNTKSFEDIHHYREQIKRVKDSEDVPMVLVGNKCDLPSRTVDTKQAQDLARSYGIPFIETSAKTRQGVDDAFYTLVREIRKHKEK
Sequence of KRAS G13D (P62937 whole entry): as the sequence (P62937 whole entry) above
From the text: as §2, §3, §4, §5

AsPC-1 (K-Ras G12D) [2] = experiment: Potency assay: pERK in AsPC-1 cells; type: cell-based; details: Homo sapiens
KRAS WT = KRAS WT (Homo sapiens, UniProt P01116+P62937); experiment: Ras-Raf disruption/FRET/MOA assay, KRAS WT; type: biochemical
Sequence of KRAS WT (P01116 1-169 isoform P01116-2 limits assumed): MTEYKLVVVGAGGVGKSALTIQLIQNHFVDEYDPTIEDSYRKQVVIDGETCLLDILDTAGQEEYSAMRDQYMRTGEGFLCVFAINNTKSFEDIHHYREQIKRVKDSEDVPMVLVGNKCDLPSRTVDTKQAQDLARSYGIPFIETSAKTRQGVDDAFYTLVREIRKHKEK
Sequence of KRAS WT (P62937 whole entry): as the sequence (P62937 whole entry) above
From the text: as §2, §3, §4, §5

[3] = NRAS G12C FRET data IC50, NRAS G12C
[4] = read-out: AsPC-1 Cell Viability IC50, AsPC-1, K-Ras G12D, 5-day treatment
[5] = ASPC1, read-out: pERK EC50 (AsPC-1 KRAS G12D)
[6] = NRAS G12C, read-out: NRAS G12C FRET data IC50
[7] = disruption of BRAF RBD binding, with Cyclophilin A, read-out: KRAS G12V FRET IC50
[8] = disruption of BRAF RBD binding, with Cyclophilin A, read-out: KRAS G12C FRET IC50
[9] = AsPC-1, K-Ras G12D, 5-day treatment, read-out: AsPC-1 Cell Viability IC50
[10] = disruption of BRAF RBD binding, with Cyclophilin A, read-out: KRAS G13C FRET IC50
[11] = disruption of BRAF RBD binding, with Cyclophilin A, read-out: KRAS G12S FRET IC50
[12] = disruption of BRAF RBD binding, with Cyclophilin A, read-out: KRAS G12D FRET IC50
[13] = disruption of BRAF RBD binding, with Cyclophilin A, read-out: KRAS G13D FRET IC50
[14] = disruption of BRAF RBD binding, with Cyclophilin A, read-out: KRAS WT FRET IC50
[15] = ASPC1, AsPC-1 cells, K-Ras G12D, read-out: pERK EC50 (AsPC-1 KRAS G12D)

Question: For `CCn1c(-c2cnccc2COC)c2c3cc(ccc31)-c1cc(O)cc(c1)C[C@H](NC(=O)[C@H](C(C)C)N(C)C(=O)CN(C)C(=O)[C@@H]1CN1)C(=O)N1CCC[C@H](N1)C(=O)OCC(C)(C)C2` [Compound 8], which IC50 (NCI-H358 (K-Ras G12C); read-out: H358 Cell Viability IC50, NCI-H358, K-Ras G12C, 5-day treatment) is on record?
Answer: 10 to 100 nM

Question: And the IC50 (NRAS G12C; [3])?
Answer: 10 to 100 nM

Question: What about the IC50 (KRAS G12V) of the same compound?
Answer: 100 to 1000 nM

Question: What about the IC50 (KRAS G12C) of the same compound?
Answer: 10 to 100 nM

Question: And the IC50 (AsPC-1 (K-Ras G12D) [1]; [4])?
Answer: 1000 to 10000 nM

Question: And the IC50 (KRAS G13C)?
Answer: 10 to 100 nM

Question: What about the IC50 (KRAS G12S) of the same compound?
Answer: 10 to 100 nM

Question: And the IC50 (KRAS G12D)?
Answer: 100 to 1000 nM

Question: And the IC50 (KRAS G13D)?
Answer: 100 to 1000 nM

Question: And the EC50 (AsPC-1 (K-Ras G12D) [2]; [5])?
Answer: < 5000 nM

Question: What about the IC50 (KRAS WT) of the same compound?
Answer: 100 to 1000 nM

Question: With `CCn1c(-c2cnccc2COC)c2c3cc(ccc31)-c1cc(O)cc(c1)C[C@H](NC(=O)[C@@H](CNC1=NCCO1)C(C)C)C(=O)N1CCC[C@H](N1)C(=O)OCC(C)(C)C2` [Compound 29] as the compound, how does the IC50 (NCI-H358 (K-Ras G12C); NCI-H358, K-Ras G12C, 5-day treatment, read-out: H358 Cell Viability IC50) read?
Answer: 1000 to 10000 nM

Question: And the IC50 (NRAS G12C; [6])?
Answer: 1000 to 10000 nM

Question: And the IC50 (KRAS G12V; [7])?
Answer: 1000 to 10000 nM

Question: And the IC50 (KRAS G12C; [8])?
Answer: 1000 to 10000 nM

Question: What about the IC50 (AsPC-1 (K-Ras G12D) [1]; [9]) of the same compound?
Answer: 1000 to 10000 nM

Question: What about the IC50 (KRAS G13C; [10]) of the same compound?
Answer: 1000 to 10000 nM

Question: What about the IC50 (KRAS G12S; [11]) of the same compound?
Answer: 1000 to 10000 nM

Question: And the IC50 (KRAS G12D; [12])?
Answer: 1000 to 10000 nM

Question: And the IC50 (KRAS G13D; [13])?
Answer: 1000 to 10000 nM

Question: What about the IC50 (KRAS WT; [14]) of the same compound?
Answer: 1000 to 10000 nM

Question: With `CCn1c(-c2cccnc2[C@H](C)OC)c2c3cc(ccc31)-c1cc(O)cc(c1)C[C@H](NC(=O)[C@H](C(C)C)N(C)C(=O)CN(C)C(=O)[C@H]1N[C@H]1C1CC1)C(=O)N1CCC[C@H](N1)C(=O)OCC(C)(C)C2` [Compound 134] as the compound, how does the IC50 (NRAS G12C; [3]) read?
Answer: 10 to 100 nM

Question: What about the IC50 (KRAS G12V) of the same compound?
Answer: 100 to 1000 nM

Question: What about the IC50 (KRAS G12C) of the same compound?
Answer: 10 to 100 nM

Question: What about the IC50 (AsPC-1 (K-Ras G12D) [1]; [4]) of the same compound?
Answer: 1000 to 10000 nM

Question: And the IC50 (KRAS G13C)?
Answer: 10 to 100 nM

Question: What about the IC50 (KRAS G12S) of the same compound?
Answer: 10 to 100 nM

Question: And the IC50 (KRAS G12D)?
Answer: 100 to 1000 nM

Question: What about the IC50 (KRAS G13D) of the same compound?
Answer: 100 to 1000 nM

Question: What about the EC50 (AsPC-1 (K-Ras G12D) [2]; [5]) of the same compound?
Answer: < 5000 nM

Question: What about the IC50 (KRAS WT) of the same compound?
Answer: 10 to 100 nM

Question: Which results are given for `CCn1c(-c2cccnc2[C@H](C)OC)c2c3cc(ccc31)-c1cc(O)cc(c1)C[C@H](NC(=O)[C@H](C(C)C)N1CC[C@]3(CCN(C[C@@H]4CN4)C3)C1=O)C(=O)N1CCC[C@H](N1)C(=O)OCC(C)(C)C2` [Compound 176]?
Answer: IC50 (NRAS G12C; [6]): 10 to 100 nM; IC50 (KRAS G12V; [7]): 100 to 1000 nM; IC50 (KRAS G12C; [8]): 10 to 100 nM; IC50 (AsPC-1 (K-Ras G12D) [1]; [9]): 1000 to 10000 nM; IC50 (KRAS G13C; [10]): 10 to 100 nM; IC50 (KRAS G12S; [11]): 10 to 100 nM; IC50 (KRAS G12D; [12]): 100 to 1000 nM; IC50 (KRAS G13D; [13]): 10 to 100 nM; EC50 (AsPC-1 (K-Ras G12D) [2]; [15]): < 5000 nM; IC50 (KRAS WT; [14]): 10 to 100 nM

Question: With `CCn1c(-c2cccnc2[C@H](C)OC)c2c3cc(ccc31)-c1cc(O)cc(c1)C[C@H](NC(=O)[C@H](C(C)C)N1CC[C@]3(CCCN(C(=O)[C@@H]4CN4)C3)C1=O)C(=O)N1CCC[C@H](N1)C(=O)OCC(C)(C)C2` [Compound 192] as the compound, how does the IC50 (NRAS G12C; [6]) read?
Answer: < 10 nM

Question: What about the IC50 (KRAS G12V; [7]) of the same compound?
Answer: 10 to 100 nM

Question: And the IC50 (KRAS G12C; [8])?
Answer: < 10 nM

Question: What about the IC50 (AsPC-1 (K-Ras G12D) [1]; [9]) of the same compound?
Answer: 1000 to 10000 nM

Question: And the IC50 (KRAS G13C; [10])?
Answer: 100 to 1000 nM

Question: And the IC50 (KRAS G12S; [11])?
Answer: 100 to 1000 nM

Question: What about the IC50 (KRAS G12D; [12]) of the same compound?
Answer: 100 to 1000 nM

Question: And the IC50 (KRAS G13D; [13])?
Answer: 1000 to 10000 nM

Question: And the EC50 (AsPC-1 (K-Ras G12D) [2]; [15])?
Answer: < 5000 nM

Question: And the IC50 (KRAS WT; [14])?
Answer: 100 to 1000 nM
